Data as given in patent US12714722B2, “Cancer combination therapies utilizing a nicotinamide phosphoribosyltransferase inhibitor in combination with a nicotinamide adenine dinucleotide salvage pathway precursor” (Fred Hutchinson Cancer Center, priority 2019, dated 2026).
“Also recorded” adds a separate entry of the source.

Tests used:
[1] = tested on: GSC 0131; assay: Cell viability, FK866 with or without NMN, in GSC 0131; assay type: cell-based, human; parameters: key to viability compared to No drug control: +: indicates similar viability compared to parental cells in ″No drug control″; −: indicates significantly diminished viability (as determined by Student's t-test)
[2] = tested on: GSCs (0131 and 0827) and control hNPC-CB660 cells; assay: Metabolic inhibitor library screen and retest, GSCs versus control neural stem cells; assay type: cell-based, human; conditions: 48 hrs; Cell titerglo assay; n=3
Description: Example 1. To Identify New Metabolic Vulnerabilities in Human GSCs, a Chemical Library screen was performed using […] inhibitors of metabolic enzymes in two GSCs (0131 and 0827) and control hNPC-CB660 cells. […] To further explore this phenotype, an NAD salvage substrate, NMN was used, to bypass the requirement for NAMPT and rescue cytotoxicity. NMN is a substrate for the ectoenzyme CD73 (Ratajczak J et al., Nature communications. 2016; 7:13103), which generates NR, which is transported intracellular by equilibrative nucleoside transporters. (Nikiforov et al., J Biol Chem. 2011; 286(24):21767-78.) Intracellular NR is phosphorylated by NMRK in a NAMPT-independent NAD salvage pathway.
Methods. Cell culture. […]
Metabolic inhibitors screen protocol and data analysis. […] After 48 hours, cell viability was measured via Cell-Titer-Glo. […]

[3] = tested on: CB660; assay: Cell viability (Cell-Titer-Glo), FK866 with or without NMN, in NSC-CB660; assay type: cell-based, human; parameters: key: +: indicates similar viability compared to parental cells in ″No drug control″; −: indicates significantly diminished viability (as determined by Student's t-test); conditions: CB660 cells; FK-866 alone or with NMN
[4] = tested on: GSC 0131 NMRK1 KO; assay: Cell viability, FK866 with or without NMN, in GSC 0131 with NMRK1 knockout; assay type: cell-based, human; parameters: key to viability compared to No drug control: +: indicates similar viability compared to parental cells in ″No drug control″; −: indicates significantly diminished viability (as determined by Student's t-test)
Description: (§1) Methods. Cell culture. NSC and GSC lines were grown in NeuroCult NS-A basal medium (StemCell Technologies) supplemented with B27 (Thermo Fisher), N2 (2× stock in Advanced DMEM/F-12 (Fisher) with 25 μg/mL insulin (Sigma), 100 μg/mL apo-Transferrin (Sigma), 6 ng/mL progesterone (Sigma), 16 μg/mL putrescine (Sigma), 30 nM sodium selenite (Sigma), and 50 μg/mL bovine serum albumin (Sigma), and EGF and FGF-2 (20 ng/mL each) (Peprotech) on laminin (Sigma or Trevigen) coated polystyrene plates and passaged according to previously published protocols (Pollard et al., Cell Stem Cell. 2009; 4(6):568-80). Cells were detached from their plates using Accutase (Thermo Fisher). 293T (ATCC) cells were grown in 10% FBS/DMEM (Invitrogen).
(§2) In addition, knockout of NMRK1 in GSC 0131 cells should replicate the effect of FK866 seen in GSC 0827 cells.
NMRK1 knockout. Using nucleofection (4D-Nucleofector; Amaxa) in combination with Cas9:sgRNA complexes (Synthego). Using the Synthego prediction software, 3 synthetic sgRNA guides were generated to give indel formation within the NMRK1 transcript.
Synthetic guides were mixed with recombinant cas9 and nucleofected using an Amaxa 96-well nucleofection system. Indel formation was highest with guides 1 and 2, and lowest with guide 3. Combining guides 1 and 2 yielded >90% indel formation. […]

[5] = tested on: GSC 0827; assay: Cell viability, FK866 with or without NMN, in GSC 0827 (NMRK1 low); assay type: cell-based, human; parameters: key to viability compared to No drug control: +: indicates similar viability compared to parental cells in ″No drug control″; −: indicates significantly diminished viability (as determined by Student's t-test); conditions: for rescue of FK866-treated cells with NMN: GSC-0827 cells, in the presence of FK866
Description: as §1
Metabolic inhibitors screen protocol and data analysis. 230 metabolic inhibitors were screened in GSC lines (0131 and 827) and NSC CB660 cell line grown in 96-well optical bottom plates. After 24 hours, inhibitors were diluted in cell media and added to plated cells. Inhibitor concentration was based on IC 50 for the target enzymes, with 1× being the IC50 0.25× being the lower concentration and 5× being the higher concentration. Each concentration was tested in triplicate. After 48 hours, cell viability was measured via Cell-Titer-Glo. A z-score was established for each compound concentration, based on Untreated and Puromycin treated cells. Positive candidates were defined as compounds with a z-score less than that of CB660 cells. Positive candidates were rescreened to verify results.
NMN and NR Complementation studies. To verify if selectivity of NAMPT inhibition relied on downregulation of salvaging pathways, 827 cells were tested on cell viability in the presence of FK866 and the addition of NMN.

[6] = cited from earlier work
[7] = tested on: GSC 0827 + NMRK1; assay: Cell viability, FK866 with or without NMN, in GSC 0827 ectopically expressing NMRK1; assay type: cell-based, human; parameters: key to viability compared to No drug control: +: indicates similar viability compared to parental cells in ″No drug control″; −: indicates significantly diminished viability (as determined by Student's t-test)
Description: as §1, §2
Cloning of NMRK1 ORF and NMRK1 complementation studies. […] This could be used as negative control for transfection purposes.
NMRK1 was then synthesized as a g-block based on HEK293T genomic DNA sequence:
Insertion of the purified product into vector was accomplished via Gibson assembly using NEB HiFi DNA Assembly Master Mix Kit with BamHI pre-cut pLX304 vector for expression in GBM cell lines.
Once cloned into the pLX304 backbone, the NMRK1 expressing plasmid was prepared for nucleofection and introduced into GBM 0827 cell lines. […]

Row | Compound | viability compared to No drug control ([1]; GSC 0131 cells, FK-866 alone or with NMN) | selectivity of cytotoxicity for GSCs over neural stem cells [2] | viability compared to No drug control [3] | viability compared to No drug control ([4]; GSC 0131 NMRK1 KO cells, FK-866 alone or with NMN) | viability compared to No drug control ([5]; GSC 0827 cells, FK-866 alone or with NMN) | rescue of FK866-treated cells with NMN [5] | toxicity in clinical trials [6] | viability compared to No drug control ([7]; GSC 0827 + NMRK1 cells, FK-866 alone or with NMN) | rescue of FK866-treated cells with NMN ([1]; GSC-0131 cells, in the presence of FK866) | rescue of FK866-treated cells with NMN ([4]; GSC-0131 cells with NMRK1 knockout, in the presence of FK866) | rescue of FK866-treated cells with NMN ([7]; GSC-0827 cells with ectopic NMRK1 expression, in the presence of FK866)
1 | O=C(/C=C/c1cccnc1)NCCCCC1CCN(C(=O)c2ccccc2)CC1 [FK866, (E)-N-[4-(1-benzoyl-4-yl)-butyl]-3-(pyridin-3-yl) acrylamide] | − | GSC-selective cytotoxicity; also recorded: GSC and transformation specificity | + | − | − | remained exquisitely sensitive; also recorded: cannot be overcome | dose-limiting toxicities | − |  |  | 
2 | NC(=O)c1ccc[n+]([C@@H]2O[C@H](COP(=O)([O-])O)[C@@H](O)[C@H]2O)c1 [NMN, nicotinamide mononucleotide] |  |  |  |  |  | not |  |  | could be rescued; also recorded: sufficient to rescue; also recorded: can be complemented | rescue was prevented | sufficient to rescue; also recorded: demonstrated rescue; also recorded: allows utilization
